“And” between values parts separate entries of the source, which are not always exact repeats. Identical values can stand only once.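 Assay format: 96-well plates, 48-hour exposure. At the GI50, growth is halved. At the TGI there is no net growth.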
Experiments:
Assay in all cases: NCI anticancer screen, dose series, 48 h
MCF7 breast = tested on: MCF7 breast
786-0 renal = tested on: 786-0 renal
KM12 colon = tested on: KM12 colon
SF-268 CNS = tested on: SF-268 CNS
RPMI-8226 leukemia = tested on: RPMI-8226 leukemia
MDA-MB-435 = tested on: MDA-MB-435
OVCAR-5 ovarian = tested on: OVCAR-5 ovarian
NCI-H460 lung = tested on: NCI-H460 lung
OVCAR-8 ovarian = tested on: OVCAR-8 ovarian
OVCAR-3 ovarian = tested on: OVCAR-3 ovarian

SMILES	GI50 (MCF7 breast) [µM]	TGI (MCF7 breast)	GI50 (786-0 renal) [µM]	TGI (786-0 renal)	GI50 (KM12 colon) [µM]	TGI (KM12 colon)	GI50 (SF-268 CNS) [µM]	TGI (SF-268 CNS)	GI50 (RPMI-8226 leukemia) [µM]	TGI (RPMI-8226 leukemia)	GI50 (MDA-MB-435) [µM]	TGI (MDA-MB-435)	GI50 (OVCAR-5 ovarian) [µM]	TGI (OVCAR-5 ovarian)	GI50 (NCI-H460 lung) [µM]	TGI (NCI-H460 lung)	GI50 (OVCAR-8 ovarian) [µM]	TGI (OVCAR-8 ovarian)	GI50 (OVCAR-3 ovarian) [µM]	TGI (OVCAR-3 ovarian)
CCn1c(-c2nonc2N)nc2cnc(Oc3cccc(NC(=O)c4ccc(OCCN5CCOCC5)cc4)c3)cc21	3.87	> 25 µM	3.49	> 25 µM	7.63	> 25 µM	0.724	> 25 µM	4.28	> 25 µM	7.39	> 25 µM	5.22	> 25 µM	2.3	> 25 µM	6.25	> 25 µM	7.17	> 25 µM
COc1cccc(C2CC(C)(O)Oc3cc4c(cc32)OCO4)c1 (stereo not drawn)	–	> 100 µM	–	> 100 µM	–	> 100 µM	–	> 100 µM	–	66.2 µM	–	15.2 µM	–	> 100 µM	–	53.6 µM	–	> 100 µM	–	56 µM
COc1ccc2c(c1)c(-c1ccc(-c3cn(C)c4ccc(OC)cc34)s1)cn2C	> 100	> 100 µM	> 100	> 100 µM	> 100	> 100 µM	> 100	> 100 µM	> 100	> 100 µM	> 100	> 100 µM	> 100	> 100 µM	> 100	> 100 µM	> 100	> 100 µM	> 100	> 100 µM
C=CC(=O)N1CCN([C@@H](CC2CC2)c2ccc([C@H](C)Nc3ncc4c(n3)N(CC)C(=O)OC4)cc2)CC1	6.66	24.6 µM	11.2	25.7 µM	15.1	34.6 µM	11.7	28.5 µM	4.95	24.9 µM	11.1	23.6 µM	16.6	35.4 µM	14.2	29.7 µM	11.1	26.7 µM	12	26.5 µM
[Cu].c1ccc2c(c1)C1=NC2=NC2=NC(=NC3=NC(=NC4=NC(=N1)c1ccccc14)c1ccccc13)c1ccccc12	> 100	> 100 µM	> 100	> 100 µM	> 100	> 100 µM	> 100	> 100 µM	> 100	> 100 µM	> 100	> 100 µM	> 100	> 100 µM	> 100	> 100 µM	> 100	> 100 µM	> 100	> 100 µM
COc1ccc2c(c1[N+](=O)[O-])CC[C@@H]1[C@@H]2CC[C@]2(C)C(=O)CC[C@@H]12	998	> 1000 µM	> 25	> 562 µM	> 1000	> 1000 µM	342	> 1000 µM	> 1000	> 1000 µM	> 1000	> 1000 µM	> 1000	> 1000 µM	> 756	–	462	> 1000 µM	631	> 1000 µM
CC(C)OC(=O)Nc1c([N+](=O)[O-])cc(C(F)(F)F)cc1[N+](=O)[O-]	–	> 100 µM	–	> 100 µM	–	> 100 µM	–	> 100 µM	–	> 100 µM	–	> 100 µM	–	> 100 µM	–	> 100 µM	–	> 100 µM	–	> 100 µM
Clc1ccc(NCNC2Nc3ccccc3N2)cc1Cl	–	29.1 µM	–	> 100 µM	–	92.5 µM	–	> 100 µM	–	> 100 µM	–	93.2 µM	–	> 100 µM	–	> 100 µM	–	46.6 µM	–	> 100 µM
C=C1C(=O)O[C@@H]2C[C@@]3(C)CCC[C@H](C)C3=C[C@H]12 (tested in a mixture with another compound)	–	10.7 µM	–	2.83 µM	–	8.89 µM	–	7.2 µM	–	4.05 µM	–	3.72 µM	–	15.8 µM	–	14.3 µM	–	3.13 µM	–	3.44 µM
CCOc1cc(/C=C/C(=O)CC(=O)/C=C/c2ccc(OC(=O)CNc3nc4ccc(OC)cc4s3)c(OCC)c2)ccc1OC(=O)CNc1nc2ccc(OC)cc2s1	2.54	10.8 µM	17	85.1 µM	2.96	12.1 µM	3.12	25.8 µM	1.69	4.29 µM	2.46	8.3 µM	15.3	34 µM	5.1	23.4 µM	2.5	6.32 µM	4.45	29 µM
N#Cc1nc2cc(Cl)c(Cl)cc2nc1-c1ccc(Cl)cc1	37.3	> 100 µM	16.8	34.8 µM	> 60.5	> 100 µM	27.4	> 72.7 µM	24.3	> 100 µM	> 83.4	> 100 µM	> 100	> 100 µM	37.6	> 100 µM	55.7	> 100 µM	1.89	> 47.8 µM
CN(C)CCN1C(=O)c2cccc3cc(N)cc(c23)C1=O	1.38	22.2 µM and 18.5 µM	4.16	> 81.6 µM and 23 µM	3.32	26.5 µM and 25.5 µM	3.83	25.6 µM and 28.9 µM	3.37	25.2 µM and 19.9 µM	3.86	15.7 µM and 9.98 µM	3.98	48.7 µM and 13.8 µM	–	5.34 µM and 5.95 µM	2.46	30.5 µM and 7.38 µM	4.98	25.9 µM and 26.4 µM
CC(=O)Nc1ccc(CC[C@H]2CCC/C=C/[C@@H]3C[C@H](O)C[C@H]3[C@H](O)/C=C/C(=O)O2)cc1	0.157	0.338 µM	0.0252	0.0838 µM	0.0983	0.315 µM	0.0594	> 100 µM	0.222	0.591 µM	0.151	> 100 µM	0.346	> 66.4 µM	0.365	> 100 µM	0.0821	> 100 µM	0.217	0.533 µM
O=C(c1ccccc1)c1nc2ccc(Cl)cc2cc1C(Br)Br	–	1.96 µM	–	0.378 µM	–	1.06 µM	–	0.972 µM	–	1.18 µM	–	1.14 µM	–	2 µM	–	1.31 µM	–	1.32 µM	–	0.856 µM
CC(C)CC(NC(=O)C(O)C(N)Cc1ccccc1)C(=O)O (stereo not drawn)	–	> 100 µM	–	> 100 µM	–	> 100 µM	–	> 100 µM	–	> 100 µM	–	> 100 µM	–	> 100 µM	–	> 100 µM	–	> 100 µM	–	> 100 µM

Reference: PubChem BioAssay (NCI)
